The results in this text go back to PubChem BioAssay (NCI).

Broadly, the GI50 is the concentration giving 50% growth inhibition. In general, TGI refers to the concentration giving total growth inhibition. Read a low TGI as greater sensitivity of the cells.

The structures appear in SMILES notation. Several values for one entry are separate records, joined by “and”; a condition that tells them apart may be missing. Equal entries are not always repeated.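 Cells were grown in 96-well plates and exposed to each compound for 48 hours at five concentrations; endpoints were interpolated linearly between bracketing concentrations, or set to the highest concentration if not reached. GI50 marks 50% less growth. TGI: concentration producing complete growth inhibition.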 Where only a bound is given, the exact number is not on record here.

The test system of the assay is MDA-MB-468 breast. The assay is described as follows: DTP human tumour cell line panel, 48 h.
Turning to `C=CC[Se]C(=O)Cc1c(C)n(C(=O)c2ccc(Cl)cc2)c2ccc(OC)cc12`, the GI50 was 1.87 µM and the concentration for total growth inhibition (TGI) was determined as 3.74 µM.

As for `CCCC(=O)NC(c1ccc2c(c1)OCO2)c1ccc2cccnc2c1O` (stereo not given), the GI50 was 0.388 µM and the TGI worked out at 2.53 µM.

Consider `CCOC(=O)N1C/C(=C/c2ccc(OC)cc2)C(=O)/C(=C/c2ccc(OC)cc2)C1`, for which the GI50 was 1.54 µM and the concentration for total growth inhibition (TGI) was determined as 4.04 µM.

`CC(C)c1cc(CNc2nc(Nc3cc(C4CC4)[nH]n3)cc(N3CCN(C)CC3)n2)on1`: the GI50 was 1.3 µM; the total growth inhibition concentration (TGI) is 5.5 µM and 2.2 µM.

Regarding `COc1ccc2[nH]c(-c3cccc(N(C)C)c3)cc(=O)c2c1`, the GI50 is 13.3 µM and the TGI is > 100 µM.

Turning to `COc1ccc(NC(=O)Nc2ccc(Nc3nc(C)cc(Nc4ccc(C)cc4)n3)cc2)cc1`, the GI50 was 1.58 µM and the concentration for total growth inhibition (TGI) worked out at 3.1 µM.

With `CN(Cc1ccccc1)S(=O)(=O)/N=C1\NC(=O)NC1=C(Cl)Cl`, the GI50 is 0.427 µM and the concentration for total growth inhibition (TGI) came to 12.8 µM.

For the molecule `O=C(O)c1ccc(-c2ccc(C(=O)O)cc2I)c(I)c1`, the GI50 is > 100 µM and the total growth inhibition concentration (TGI) is > 100 µM.

On to `COc1cccc2c1cc([N+](=O)[O-])c1c(C(=O)O)cc3c(c12)OCO3`, for which the GI50 was 8.57 µM and the concentration for total growth inhibition (TGI) turned out to be 26.1 µM.

Turning to `Cc1[nH]nc2c1N=C(c1ccccc1F)c1cc(C#N)ccc1N2`, the GI50 was 0.0932 µM and the TGI is 7.2 µM.

As for `O=C(CC1(O)C(=O)Nc2ccc(Br)cc21)c1ccc(C(=O)NCC2CCC3(CC2)OOC2(CCCCC2)OO3)cc1` (stereo not given), the GI50 is 3.13 µM and the total growth inhibition concentration (TGI) was determined as 20.3 µM.

Turning to `COc1ccc(NC(=O)c2sc3nc(C)c(C(O)c4ccc(OC)cc4)cc3c2N)cc1` (stereo not given), the 50% growth inhibitory concentration (GI50) was 0.145 µM and the TGI turned out to be 1.61 µM.

`CCCC1CCC(O)(C(C)(O)C(=O)NC2C(=O)N3NCCCC3C(=O)N(O)C(C)C(=O)N3NCCCC3C(=O)N3NCC(O)CC3C(=O)NC(C)C(=O)OC2C(C)C)OC1CC` (stereo not given): the GI50 was > 25 µM and the TGI was > 25 µM.

For `O=C1/C(=C/c2ccc([N+](=O)[O-])s2)Oc2ccccc21`, the GI50 was 0.39 µM and the TGI was found to be 2.17 µM.

For the molecule `CCCCCC(=O)OCC(=O)O[C@@H]1C[C@]2(C(C)C)O[C@@]1(C)[C@@H]1CC[C@@H](C)[C@H]1[C@@H]2OC(=O)/C=C/c1ccccc1`, the GI50 is 27 µM and the total growth inhibition concentration (TGI) was > 76.9 µM.

With `COC(=O)c1c2c(c(C)[n+]([O-])c1C)C(=O)C(NCc1cccc(OC)c1)=CC2=O`, the GI50 was 1.52 µM and the TGI worked out at 3.84 µM.

Regarding `CCCCN(CCCC)CC(C)(C)C(O)c1ccc(OC)c2ccccc12` (stereo not given), the GI50 is 1.56 µM and the concentration for total growth inhibition (TGI) was 3.97 µM.

In the case of `COc1cc(-c2nn(C(=O)NS(=O)(=O)c3ccc(C)cc3)cc2-c2ccncc2)ccc1Cl`, the GI50 is 2.91 µM and the TGI turned out to be 19.8 µM.

`COc1cc(C2CC(c3ccc4c(c3)OCO4)=NN2C(C)=O)cc(OC)c1OC` (stereo not given): the GI50 was 0.289 µM and the TGI was found to be 1.71 µM.

For the molecule `COC(=O)[C@@H](Cc1c[nH]c2ccccc12)NC(=O)/C=C/c1ccccc1`, the GI50 is 2.57 µM and the TGI worked out at 25.9 µM.

As for `CC(F)(F)c1cc(F)ccc1-c1sc2cc(O)ccc2c1Oc1ccc(/C=C/C(=O)O)cc1`, the GI50 is 5.94 µM and the concentration for total growth inhibition (TGI) worked out at 43.4 µM.

As to `Cc1ccc(S(=O)(=O)NC(CCC(=O)Nc2ccccc2)C(=O)Nc2ccccc2)cc1` (stereo not given), the GI50 is 0.289 µM and the TGI was determined as 1.13 µM.

As for `COc1cnc2c(c1)C(=O)c1c-2n(CCCN2CCNCC2)c(=O)c2cc(Cl)ccc12`, the GI50 is 0.552 µM and the TGI worked out at 2.2 µM.

The molecule `CC[C@@H](C)[C@H]([C@H](CC(=O)N1CCC[C@@H]1[C@@H](OC)[C@H](C)C(=O)N[C@H](Cc1ccccc1)c1nccs1)OC)N(C)C(=O)[C@H](NC(=O)[C@@H](C(C)C)N(C)C)C(C)C` yielded a concentration for total growth inhibition (TGI) of 67.2 µM.

For `CCCCCCNC(=O)Oc1ccc(/C(=C(\C)c2ccccc2)c2ccc(OCCN3CCCCC3)cc2)cc1`, the GI50 is 1.74 µM and the total growth inhibition concentration (TGI) is 5.17 µM.

In the case of `CN(C)CCOC1(Cc2ccc(Cl)cc2Cl)CCC(C(C)(C)C)CC1` (stereo not given), the GI50 was 1.78 µM and 1.77 µM; the TGI was 3.47 µM and 3.49 µM.

In the case of `BrC(Br)(Br)c1cnc2ccccc2n1`, the GI50 was 1.15 µM and the total growth inhibition concentration (TGI) was determined as 2.76 µM.

As for `O=C(NCCN1CCOCC1)Nc1ccc(-c2cc3c(Nc4ccc(Oc5cccc(C(F)(F)F)c5)c(Cl)c4)ncnc3s2)cc1`, the GI50 was 1 µM and the TGI was 2.5 µM.

With `COc1ccccc1CNC(=O)C1c2ccccc2C(=O)N(CC(C)C)C1c1cccs1` (stereo not given), the GI50 is 12 µM and the total growth inhibition concentration (TGI) was determined as 60.5 µM.

Take `COc1cccc(Cn2cc3c(c2)-c2oncc2CC3)c1`: the GI50 is 0.196 µM and the TGI came out at 0.582 µM.

As for `CN1CCN(Cc2ccc(NC(=O)c3[nH]ncc3Nc3ncnc4sccc34)cc2)CC1`, the 50% growth inhibitory concentration (GI50) was 0.38 µM and the TGI was determined as 2.56 µM.

As for `CCn1c(-c2nonc2N)nc2c(C#CC(C)(C)O)nc(O[C@@H](CN)c3ccccc3)cc21`, the concentration for 50% growth inhibition (GI50) is 0.0173 µM and the TGI is 0.435 µM.

As for `COc1ccc(C2C(c3ccccc3)C(=O)N2c2cc(OC)c(OC)c(OC)c2)cc1I` (stereo not given), the GI50 was 0.373 µM and the TGI is > 100 µM.

Regarding `CCCC[P+](c1ccccc1)(c1ccccc1)c1ccccc1`, the concentration for 50% growth inhibition (GI50) is 0.219 µM and the TGI turned out to be 2.37 µM.

Consider `CN(C)CCOc1nc2c3cccnc3cc(-c3cccc(Cl)c3)c2c2ncccc12`, for which the GI50 is 1.43 µM and the TGI came out at 2.86 µM.

In the case of `CC[C@H](Nc1nc(N)nc(N)c1Cl)c1nc2cccc(NCc3ccc(C(=O)NO)cc3)c2c(=O)n1-c1ccccc1`, the GI50 was 1.5 µM and the TGI came to 3.42 µM.

`Oc1ccc(/C=N/Nc2nc3ccccc3s2)c(O)c1`: the GI50 is 2.08 µM and the TGI stood at 8.4 µM.

In the case of `COc1cc(-c2nc(SCC(=O)Nc3ccc(C(C)=O)cc3)[nH]c(=O)c2C#N)cc(OC)c1OC`, the GI50 was 25.4 µM and the concentration for total growth inhibition (TGI) was > 100 µM.

With `Cc1ccccc1-n1c(/C=C\c2ccccn2)nc2ccccc2c1=O`, the GI50 was 3.61 µM and the TGI was 32.2 µM.

Turning to `CS(=O)c1ccc(-c2nc(-c3ccc(F)cc3)c(-c3ccncc3)[nH]2)cc1` (stereo not given), the GI50 was 13.4 µM and the TGI was > 60.6 µM.

As for `NC(N)=N/N=C/c1cccc(Cl)c1Cl`, the GI50 was 1.52 µM and the concentration for total growth inhibition (TGI) came to 3.24 µM.

For `O=C(NCCCNC(=O)OCc1ccc2c(Br)cc(Br)c(O)c2n1)OCc1ccc2c(Br)cc(Br)c(O)c2n1`, the GI50 was > 100 µM and the TGI is > 100 µM.

In the case of `O=C1C=CN(C2OC(CO)C(O)C2O)C(=O)C1` (stereo not given), the GI50 is > 2500 µM and the TGI was > 2500 µM.

In the case of `Oc1ccc(Br)cc1/C=N/NC(=S)NC12CC3CC(CC(C3)C1)C2`, the GI50 is 1.8 µM and the TGI is 4.77 µM.

In the case of `COc1cc2nc(-c3ccc(-n4cncc4-c4ccc(N)cc4)cc3)sc2c(OC)c1OC`, the GI50 was 1.82 µM and the concentration for total growth inhibition (TGI) came to 4.47 µM.

Consider `C[C@@]1(c2ncncc2F)NC(=O)c2cc(-c3cn[nH]c3)ccc21`, for which the GI50 is 21.6 µM and the TGI came to 51.5 µM.

On to `N=C(N)c1ccc(-c2ccc(-c3ccc(Cl)cn3)s2)cc1`, for which the GI50 was 1.6 µM and the concentration for total growth inhibition (TGI) is 3.41 µM.

Regarding `O=C(Nc1cccc2cccnc12)c1ccc(N2C(=O)[C@@H]3[C@H](C2=O)[C@@H]2C=C[C@H]3C2)cc1`, the GI50 was 14.2 µM and the concentration for total growth inhibition (TGI) came to 81.4 µM.
